# Source: EP4603105A1, “PHARMACEUTICAL COMPOSITION CONTAINING CYCLIC COMPOUND HAVING SELECTIVE KRAS INHIBITORY EFFECT AGAINST HRAS AND NRAS” (CHUGAI SEIYAKU KABUSHIKI KAISHA, priority 2022, dated 2024)
# Where two headings read alike, the source gives them in different places. *1 amine or outer side, *2 acyl side, *3 side chain or, on linkers, in order; H or OH if unused. Where a SMILES comes first, the peptide text is derived from it. Bridges are numbered along the chain shown (N, C = ends). [ ]: non-standard residue; d: D form. The star is where a group is joined. hPhe(3-Cl-4-CF3) = N[C@@H](CCc1ccc(C(F)(F)F)c(Cl)c1)C(=O)O; NPrPhe(4-CF3) = CCCN[C@@H](Cc1ccc(C(F)(F)F)cc1)C(=O)O; X40 = Cc1ccc(C[C@@H](C(=O)[*:2])N(CC(C)C)[*:1])cc1; X49 = Cc1ccc(C[C@@H](C(=O)[*:2])N(CC2CC2)[*:1])cc1; NPrPhe(4-Me) = CCCN[C@@H](Cc1ccc(C)cc1)C(=O)O; 3Oxa8azabicyclo(3.2.1)octane = C1CC2COCC1N2*; NEtPhe(4-Me) = CCN[C@@H](Cc1ccc(C)cc1)C(=O)O; NMePhe(4-Me) = CN[C@@H](Cc1ccc(C)cc1)C(=O)O; X21 = CCCN([C@H](C(=O)[*:2])C1CCCC1)[*:1]; NMeGly(cPent) = CN[C@H](C(=O)O)C1CCCC1; NMeD = CN[C@@H](CC(=O)O)C(=O)O; NMeL = CN[C@@H](CC(C)C)C(=O)O; Morpholide = C1CN(*)CCO1; NMeA = CN[C@@H](C)C(=O)O; NMeAib = CNC(C)(C)C(=O)O; Nle = CCCC[C@H](N)C(=O)O; Piperidide = C1CCN(*)CC1; Ac5c = NC1(C(=O)O)CCCC1; Aze = O=C(O)[C@@H]1CCN1; NEtG = CCNCC(=O)O; Sar = CNCC(=O)O
# What was measured:
# HRAS wild-type protein = HRAS wild-type protein (Homo sapiens, UniProt P01112); test: Binding to HRAS by surface plasmon resonance (SPR), KD and KD ratio to KRAS; details: ratio of KD for HRAS wild-type protein to KD for KRAS
# Protocol: Surface plasmon resonance was used to analyze the binding affinity of compounds for KRAS, NRAS, and HRAS. The apparatus used was Biacore 8K, 8K+, or T200 (GE Healthcare), and the running buffer used was HBS (10 mM HEPES-NaOH, 150 mM NaCl, pH 7.4) containing 1 mM DTT, 10 mM MgCl2, 0.01% Tween 20, 10 µM GDP, and 4% DMSO.
# Biotinylated Avi-tag fusion KRAS, NRAS, and HRAS proteins were expressed in E. coli BL21 (DE3) strains, and after cells were homogenized, they were purified using Streptavidin Mutein Matrix and Superdex 75. After purification, GDP-loaded KRAS, NRAS, and HRAS proteins were immobilized on the surface of Sensor Chip CAP (Cytiva) coated with Biotin CAPture Reagent in an immobilization amount of about 100 to 300 RU. Binding of each compound was evaluated by the Single Cycle Kinetics method, and a running buffer or a compound solution was added to the RAS protein non-immobilized surface and the immobilized surface to obtain a binding response. The flow rate was set to 100 µL/min, and in the compound-adding cycle, compound solutions having different concentrations were intermittently added for 75 seconds each, starting from a low concentration. […] In the blank cycle, a running buffer was intermittently added and not the compound solution. The Biotin CAPture Reagent and RAS proteins were immobilized for each cycle, and at the end of each cycle, the sensor chip was regenerated by the regeneration solution appended to the Biotin CAPture Kit (Cytiva). Measurement was carried out at 30°C.
# The resulting sensorgram was subjected to curve fitting based on a 1:1 binding model on Biacore Insight Evaluation Software or T200 Evaluation Software, and thereby the dissociation constant KD of each compound with respect to KRAS, NRAS, and HRAS was determined. […] Blank indicates a compound from which the KD value with respect to NRAS or HRAS was not obtained.
# [1] = target: GDP-bound NRAS wild-type protein (Homo sapiens, UniProt P01111); test: Binding to NRAS by surface plasmon resonance (SPR), KD and KD ratio to KRAS; details: ratio of KD for GDP-bound NRAS wild-type protein to KD for KRAS
# How it was run: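 Measured at 30°C: SPR with GDP-loaded, E. coli-expressed biotin-Avi RAS captured (~100–300 RU), ascending 75 s compound injections, HBS pH 7.4 with GDP, MgCl2, 4% DMSO. KD from 1:1 fit.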
# [2] = test system: human lung cancer strain NCI-H441; format: cell-based
# How it was run: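 Signal came from […] measured per well once the reagent was added. Beforehand, cells were cultured at 37°C and 5% carbon dioxide on a compound series serially diluted in dimethyl sulfoxide.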
# Chain of GDP-bound NRAS wild-type protein (P01111 whole entry): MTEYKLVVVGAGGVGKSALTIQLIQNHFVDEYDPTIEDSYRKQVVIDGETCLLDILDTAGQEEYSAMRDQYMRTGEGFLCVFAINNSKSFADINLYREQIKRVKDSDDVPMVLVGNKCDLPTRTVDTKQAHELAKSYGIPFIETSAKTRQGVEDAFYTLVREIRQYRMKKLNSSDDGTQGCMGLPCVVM
# Chain of HRAS wild-type protein (P01112 whole entry): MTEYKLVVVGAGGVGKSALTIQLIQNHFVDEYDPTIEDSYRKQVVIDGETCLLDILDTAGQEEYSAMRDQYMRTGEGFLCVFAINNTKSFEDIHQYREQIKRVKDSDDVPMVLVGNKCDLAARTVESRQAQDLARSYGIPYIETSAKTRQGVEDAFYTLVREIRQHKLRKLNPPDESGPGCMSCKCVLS
Structure (SMILES),HRAS /KRAS (HRAS wild-type protein),NRAS /KRAS [1],IC50 [2] [nM],"IC50 ([2]; NCI-H441 cells, 4 days, CellTiter-Glo, read-out: NCl-H441 IC50) [nM]"
CCCC[C@@H]1NC(=O)[C@H](CCc2ccc(C(F)(F)F)c(Cl)c2)NC(=O)CN(C)C(=O)[C@H](Cc2ccc(C)cc2)N(C)C(=O)CN(C)C(=O)CN(C)C(=O)[C@H]([C@@H](C)CC)NC(=O)[C@H](CC(C)C)N(C)C(=O)C[C@@H](C(=O)N2CCCCC2)N(C)C(=O)[C@H](CC(C)C)NC(=O)C(C)(C)N(C)C1=O [PP0049] ([NMeL]I[Sar][Sar][NMePhe(4-Me)][Sar][hPhe(3-Cl-4-CF3)][Nle][NMeAib]L[NMeD]-Piperidide; lactam N-11),C (A compound having a KD ratio of 0.1 or more and less than 3 is denoted as C),C (A compound having a KD ratio of 0.1 or more and less than 3 is denoted as C),201,–
CC[C@H](C)[C@@H]1NC(=O)[C@H](CC(C)C)N(C)C(=O)C[C@@H](C(=O)N2C3CCC2COC3)N(C)C(=O)[C@H](C2CCCC2)N(C)C(=O)C2(CCCC2)NC(=O)[C@@H]2CCCN2C(=O)[C@H](CCc2ccc(C(F)(F)F)c(Cl)c2)NC(=O)CN(C)C(=O)[C@H](Cc2ccc(C)cc2)N(CC)C(=O)CN(C)C(=O)CN(C)C1=O [PP0051] ([NMeL]I[Sar][Sar][NEtPhe(4-Me)][Sar][hPhe(3-Cl-4-CF3)]P[Ac5c][NMeGly(cPent)][NMeD]-{3Oxa8azabicyclo(3.2.1)octane}; lactam N-11),C (A compound having a KD ratio of 0.1 or more and less than 3 is denoted as C),C (A compound having a KD ratio of 0.1 or more and less than 3 is denoted as C),22.1,–
CCCN1C(=O)[C@@H]2CCN2C(=O)[C@H](C)N(C)C(=O)[C@H]([C@@H](C)CC)NC(=O)[C@H](CC(C)C)N(C)C(=O)C[C@@H](C(=O)N2CCOCC2)N(C)C(=O)[C@H](C2CCCC2)N(C)C(=O)C2(CCCC2)NC(=O)[C@@H]2CCCN2C(=O)[C@H](CCc2ccc(C(F)(F)F)c(Cl)c2)NC(=O)CN(C)C(=O)[C@@H]1Cc1ccc(C)cc1 [PP0052] ([NMeL]I[NMeA][Aze][NPrPhe(4-Me)][Sar][hPhe(3-Cl-4-CF3)]P[Ac5c][NMeGly(cPent)][NMeD]-Morpholide; lactam N-11),B (a compound having 3 or more and less than 10 is denoted as B),C (A compound having a KD ratio of 0.1 or more and less than 3 is denoted as C),1.7,–
CCCN1C(=O)[C@@H]2CCN2C(=O)[C@H](C)N(C)C(=O)[C@H]([C@@H](C)CC)NC(=O)[C@H](CC(C)C)N(C)C(=O)C[C@@H](C(=O)N2CCOCC2)N(C)C(=O)[C@H](C2CCCC2)N(C)C(=O)C2(CCCC2)NC(=O)[C@@H]2CCCN2C(=O)[C@H](CCc2ccc(C(F)(F)F)c(Cl)c2)NC(=O)CN(C)C(=O)[C@@H]1Cc1ccc(C(F)(F)F)cc1 [PP0053] ([NMeL]I[NMeA][Aze][NPrPhe(4-CF3)][Sar][hPhe(3-Cl-4-CF3)]P[Ac5c][NMeGly(cPent)][NMeD]-Morpholide; lactam N-11),C (A compound having a KD ratio of 0.1 or more and less than 3 is denoted as C),C (A compound having a KD ratio of 0.1 or more and less than 3 is denoted as C),4.6,–
CCCN1C(=O)[C@@H]2CCN2C(=O)[C@H](C)N(C)C(=O)[C@H]([C@@H](C)CC)NC(=O)[C@H](CC(C)C)N(C)C(=O)C[C@@H](C(=O)N2CCOCC2)N(C)C(=O)[C@H](C2CCCC2)N(C)C(=O)C2(CCCC2)NC(=O)[C@@H]2CCCN2C(=O)[C@H](CCc2ccc(C(F)(F)F)c(Cl)c2)NC(=O)CN(C)C(=O)[C@@H]1C1CCCC1 [PP0054] ([NMeL]I[NMeA][Aze][X21][Sar][hPhe(3-Cl-4-CF3)]P[Ac5c][NMeGly(cPent)][NMeD]-Morpholide; lactam N-11),C (A compound having a KD ratio of 0.1 or more and less than 3 is denoted as C),C (A compound having a KD ratio of 0.1 or more and less than 3 is denoted as C),–,82
CC[C@H](C)[C@@H]1NC(=O)[C@H](CC(C)C)N(C)C(=O)C[C@@H](C(=O)N2CCOCC2)N(C)C(=O)[C@H](C2CCCC2)N(C)C(=O)C2(CCCC2)NC(=O)[C@@H]2CCCN2C(=O)[C@H](CCc2ccc(C(F)(F)F)c(Cl)c2)NC(=O)CN(C)C(=O)[C@H](Cc2ccc(C)cc2)N(CC(C)C)C(=O)[C@@H]2CCN2C(=O)[C@H](C)N(C)C1=O [PP0056] ([NMeL]I[NMeA][Aze][X40][Sar][hPhe(3-Cl-4-CF3)]P[Ac5c][NMeGly(cPent)][NMeD]-Morpholide; lactam N-11),B (a compound having 3 or more and less than 10 is denoted as B),C (A compound having a KD ratio of 0.1 or more and less than 3 is denoted as C),49.6,–
CC[C@H](C)[C@@H]1NC(=O)[C@H](CC(C)C)N(C)C(=O)C[C@@H](C(=O)N2CCOCC2)N(C)C(=O)[C@H](C2CCCC2)N(C)C(=O)C2(CCCC2)NC(=O)[C@@H]2CCCN2C(=O)[C@H](CCc2ccc(C(F)(F)F)c(Cl)c2)NC(=O)CN(C)C(=O)[C@H](Cc2ccc(C)cc2)N(CC2CC2)C(=O)[C@@H]2CCN2C(=O)[C@H](C)N(C)C1=O [PP0057] ([NMeL]I[NMeA][Aze][X49][Sar][hPhe(3-Cl-4-CF3)]P[Ac5c][NMeGly(cPent)][NMeD]-Morpholide; lactam N-11),B (a compound having 3 or more and less than 10 is denoted as B),C (A compound having a KD ratio of 0.1 or more and less than 3 is denoted as C),6.2,–
CCCN1C(=O)[C@@H]2CCN2C(=O)[C@H](C)N(C)C(=O)[C@H]([C@@H](C)CC)NC(=O)[C@H](CC(C)C)N(C)C(=O)C[C@@H](C(=O)N2CCOCC2)N(C)C(=O)[C@H](C2CCCC2)N(C)C(=O)C2(CCCC2)NC(=O)[C@@H]2CCCN2C(=O)[C@H](CCc2ccc(C(F)(F)F)c(Cl)c2)NC(=O)CN(CC)C(=O)[C@@H]1Cc1ccc(C)cc1 [PP0058] ([NMeL]I[NMeA][Aze][NPrPhe(4-Me)][NEtG][hPhe(3-Cl-4-CF3)]P[Ac5c][NMeGly(cPent)][NMeD]-Morpholide; lactam N-11),C (A compound having a KD ratio of 0.1 or more and less than 3 is denoted as C),C (A compound having a KD ratio of 0.1 or more and less than 3 is denoted as C),25.8,–
CCCN1C(=O)CN(C)C(=O)CN(C)C(=O)[C@H]([C@@H](C)CC)NC(=O)[C@H](CC(C)C)N(C)C(=O)C[C@@H](C(=O)N2CCOCC2)N(C)C(=O)[C@H](C2CCCC2)N(C)C(=O)C2(CCCC2)NC(=O)[C@@H]2CCCN2C(=O)[C@H](CCc2ccc(C(F)(F)F)c(Cl)c2)NC(=O)CN(C)C(=O)[C@@H]1Cc1ccc(C)cc1 [PP0059] ([NMeL]I[Sar][Sar][NPrPhe(4-Me)][Sar][hPhe(3-Cl-4-CF3)]P[Ac5c][NMeGly(cPent)][NMeD]-Morpholide; lactam N-11),C (A compound having a KD ratio of 0.1 or more and less than 3 is denoted as C),B (a compound having 3 or more and less than 10 is denoted as B),6.1,–
CCCN1C(=O)CN(C)C(=O)CN(C)C(=O)[C@H]([C@@H](C)CC)NC(=O)[C@H](CC(C)C)N(C)C(=O)C[C@@H](C(=O)N2CCOCC2)N(C)C(=O)[C@H](C2CCCC2)N(C)C(=O)C2(CCCC2)NC(=O)[C@@H]2CCCN2C(=O)[C@H](CCc2ccc(C(F)(F)F)c(Cl)c2)NC(=O)CN(C)C(=O)[C@@H]1Cc1ccc(C(F)(F)F)cc1 [PP0060] ([NMeL]I[Sar][Sar][NPrPhe(4-CF3)][Sar][hPhe(3-Cl-4-CF3)]P[Ac5c][NMeGly(cPent)][NMeD]-Morpholide; lactam N-11),B (a compound having 3 or more and less than 10 is denoted as B),B (a compound having 3 or more and less than 10 is denoted as B),1.5,–
